Our source for the Kd and binding values is PMC4417173 (2015).

Assay [1] deals with 5'-T8G4T G-quadruplex, (T8G4T)4 (DNA, G4) TTTTTTTTGGGGT
Put plainly: UV-vis titration, Soret band 404 nm. Conditions: 40 mM Tris-HCl pH 8.0, 1% DMF, 0.05% Triton X-100, 25 °C, 0.5 μM heme.

Assay [2] concerns 5'-T8iG4T isoguanine quadruplex, (T8iG4T)4 (DNA, other, 2'-deoxyisoguanine at 9, 10, 11, 12 (written as G)) TTTTTTTTGGGGT
Nature of the assay: UV-vis titration, Soret band. Particulars: 20 mM KCl; 40 mM Tris-HCl pH 8.0, 1% DMF, 0.05% Triton X-100, 25 °C; highest DNA tested 70 μM.

In assay [3] the test system is 5'-T8iG4T isoguanine pentaplex, (T8iG4T)5 (DNA, other, 2'-deoxyisoguanine at 9, 10, 11, 12 (written as G)) TTTTTTTTGGGGT
Put plainly: UV-vis titration, Soret band 404 nm. Particulars: 20 mM NaCl; 40 mM Tris-HCl pH 8.0, 1% DMF, 0.05% Triton X-100, 25 °C; 0.5 μM heme.

For `C=CC1=C(C)C2=Cc3c(C=C)c(C)c4[n]3[Fe]([Cl])[n]3c(c(C)c(CCC(=O)O)c3=CC3=NC(=C4)C(C)=C3CCC(=O)O)=CC1=N2`, the equilibrium dissociation constant (Kd) in assay [1] (20 mM KCl) amounted to 7.89 ± 0.96 µM; in assay [1] (20 mM NaCl), 3.22 ± 0.43 µM; in assay [3], 1.28 ± 0.05 µM. Besides, the binding entry in assay [2] is given as “no”.
